From ChEMBL document CHEMBL3870314, “Design, synthesis, anticancer, antimicrobial activities and molecular docking studies of theophylline containing acetylenes and theophylline containing 1,2,3-triazoles with variant nucleoside derivatives” (Eur J Med Chem, 2016)
Values after ≈ are worked out from the molar mass of the structure shown.

Tested on: not listed separately
Test: Cytotoxicity against human A375 cells after 48 hrs by MTT assay
Assay type: functional, cell-based
Details: A-375, 48 h

| Structure (SMILES) | IC50 |
| --- | --- |
| Cn1c(=O)c2c(ncn2Cc2cn(CC3OC(n4ccc(=O)[nH]c4=O)C4OC(C)(C)OC34)nn2)n(C)c1=O (configuration not stated) | 54.2 µM |
| CCn1c(=O)ccn(C2OC(Cn3cc(COC(=O)CNC(=O)Cn4cnc5c4c(=O)n(C)c(=O)n5C)nn3)C(O)C2O)c1=O (configuration not stated) | 5.81 µM |
| CCn1c(=O)ccn(C2OC(Cn3cc(COC(=O)C(C)NC(=O)C(C)n4cnc5c4c(=O)n(C)c(=O)n5C)nn3)C(O)C2O)c1=O (configuration not stated) | 52.3 µM |
| C#CCCCn1cnc2c1c(=O)n(C)c(=O)n2C | 156 µM |
| CCn1c(=O)ccn(C2OC(Cn3cc(COC(=O)Cn4cnc5c4c(=O)n(C)c(=O)n5C)nn3)C(O)C2O)c1=O (configuration not stated) | 4.89 µM |
| Cn1c(=O)c2c(ncn2CC(=O)NCC(=O)OCc2cn(CC3OC(n4ccc(=O)[nH]c4=O)C4OC(C)(C)OC34)nn2)n(C)c1=O (configuration not stated) | 59.8 µM |
| CCn1c(=O)ccn(C2OC(Cn3cc(COC(=O)CNC(=O)Cn4cnc5c4c(=O)n(C)c(=O)n5C)nn3)C(OC)C2OC)c1=O (configuration not stated) | 77.4 µM |
| Cn1c(=O)c2c(ncn2CC(=O)OCCc2cn(CC3OC(n4ccc(=O)[nH]c4=O)C4OC(C)(C)OC34)nn2)n(C)c1=O (configuration not stated) | 54.2 µM |
| C#CCCCOC(=O)Cn1cnc2c1c(=O)n(C)c(=O)n2C | 158 µM |
| C#CCOC(=O)Cn1cnc2c1c(=O)n(C)c(=O)n2C | 33.6 µM |

Tested on: not listed separately
Test: Cytotoxicity against human A549 cells after 48 hrs by MTT assay
Assay type: functional, cell-based
Details: A549, 48 h

| Structure (SMILES) | IC50 |
| --- | --- |
| Cn1c(=O)c2c(ncn2Cc2cn(CC3OC(n4ccc(=O)[nH]c4=O)C4OC(C)(C)OC34)nn2)n(C)c1=O (configuration not stated) | 8.59 µM |
| CCn1c(=O)ccn(C2OC(Cn3cc(COC(=O)CNC(=O)Cn4cnc5c4c(=O)n(C)c(=O)n5C)nn3)C(O)C2O)c1=O (configuration not stated) | 3.57 µM |
| CCn1c(=O)ccn(C2OC(Cn3cc(COC(=O)C(C)NC(=O)C(C)n4cnc5c4c(=O)n(C)c(=O)n5C)nn3)C(O)C2O)c1=O (configuration not stated) | 1.56 µM |
| C#CCCCn1cnc2c1c(=O)n(C)c(=O)n2C | 55.4 µM |
| CCn1c(=O)ccn(C2OC(Cn3cc(COC(=O)Cn4cnc5c4c(=O)n(C)c(=O)n5C)nn3)C(O)C2O)c1=O (configuration not stated) | 2.56 µM |
| Cn1c(=O)c2c(ncn2CC(=O)NCC(=O)OCc2cn(CC3OC(n4ccc(=O)[nH]c4=O)C4OC(C)(C)OC34)nn2)n(C)c1=O (configuration not stated) | 5.67 µM |
| CCn1c(=O)ccn(C2OC(Cn3cc(COC(=O)CNC(=O)Cn4cnc5c4c(=O)n(C)c(=O)n5C)nn3)C(OC)C2OC)c1=O (configuration not stated) | 52 µM |
| Cn1c(=O)c2c(ncn2CC(=O)OCCc2cn(CC3OC(n4ccc(=O)[nH]c4=O)C4OC(C)(C)OC34)nn2)n(C)c1=O (configuration not stated) | 7.39 µM |
| C#CCCCOC(=O)Cn1cnc2c1c(=O)n(C)c(=O)n2C | 56.8 µM |
| C#CCOC(=O)Cn1cnc2c1c(=O)n(C)c(=O)n2C | 156 µM |

Tested on: not listed separately
Test: Cytotoxicity against human MCF7 cells after 48 hrs by MTT assay
Assay type: functional, cell-based
Details: MCF7, 48 h

| Structure (SMILES) | IC50 |
| --- | --- |
| Cn1c(=O)c2c(ncn2Cc2cn(CC3OC(n4ccc(=O)[nH]c4=O)C4OC(C)(C)OC34)nn2)n(C)c1=O (configuration not stated) | 10.4 µM |
| CCn1c(=O)ccn(C2OC(Cn3cc(COC(=O)CNC(=O)Cn4cnc5c4c(=O)n(C)c(=O)n5C)nn3)C(O)C2O)c1=O (configuration not stated) | 2.1 µM |
| CCn1c(=O)ccn(C2OC(Cn3cc(COC(=O)C(C)NC(=O)C(C)n4cnc5c4c(=O)n(C)c(=O)n5C)nn3)C(O)C2O)c1=O (configuration not stated) | 3.8 µM |
| C#CCCCn1cnc2c1c(=O)n(C)c(=O)n2C | 34.2 µM |
| CCn1c(=O)ccn(C2OC(Cn3cc(COC(=O)Cn4cnc5c4c(=O)n(C)c(=O)n5C)nn3)C(O)C2O)c1=O (configuration not stated) | 1.89 µM |
| Cn1c(=O)c2c(ncn2CC(=O)NCC(=O)OCc2cn(CC3OC(n4ccc(=O)[nH]c4=O)C4OC(C)(C)OC34)nn2)n(C)c1=O (configuration not stated) | 12.6 µM |
| CCn1c(=O)ccn(C2OC(Cn3cc(COC(=O)CNC(=O)Cn4cnc5c4c(=O)n(C)c(=O)n5C)nn3)C(OC)C2OC)c1=O (configuration not stated) | 59.8 µM |
| Cn1c(=O)c2c(ncn2CC(=O)OCCc2cn(CC3OC(n4ccc(=O)[nH]c4=O)C4OC(C)(C)OC34)nn2)n(C)c1=O (configuration not stated) | 2.4 µM |
| C#CCCCOC(=O)Cn1cnc2c1c(=O)n(C)c(=O)n2C | 162 µM |
| C#CCOC(=O)Cn1cnc2c1c(=O)n(C)c(=O)n2C | 33.9 µM |

Tested on: Bacillus cereus
Test: Antimicrobial activity against Bacillus cereus ATCC 10876 incubated overnight by two-fold serial dilution method
Assay type: functional
Details: not given

| Structure (SMILES) | MIC |
| --- | --- |
| O=C(O)c1cn(C2CC2)c2cc(N3CCNCC3)c(F)cc2c1=O [CIPROFLOXACIN] | 0.0156 µg/mL (≈ 0.0471 µM) |
| Cn1c(=O)c2c(ncn2Cc2cn(CC3OC(n4ccc(=O)[nH]c4=O)C4OC(C)(C)OC34)nn2)n(C)c1=O (configuration not stated) | 0.0312 µg/mL (≈ 0.0592 µM) |
| CCn1c(=O)ccn(C2OC(Cn3cc(COC(=O)CNC(=O)Cn4cnc5c4c(=O)n(C)c(=O)n5C)nn3)C(O)C2O)c1=O (configuration not stated) | 0.125 µg/mL (≈ 0.198 µM) |
| CCn1c(=O)ccn(C2OC(Cn3cc(COC(=O)C(C)NC(=O)C(C)n4cnc5c4c(=O)n(C)c(=O)n5C)nn3)C(O)C2O)c1=O (configuration not stated) | 0.0312 µg/mL (≈ 0.0474 µM) |
| C#CCCCn1cnc2c1c(=O)n(C)c(=O)n2C | 0.125 µg/mL (≈ 0.508 µM) |
| CCn1c(=O)ccn(C2OC(Cn3cc(COC(=O)Cn4cnc5c4c(=O)n(C)c(=O)n5C)nn3)C(O)C2O)c1=O (configuration not stated) | 0.0625 µg/mL (≈ 0.109 µM) |
| Cn1c(=O)c2c(ncn2CC(=O)NCC(=O)OCc2cn(CC3OC(n4ccc(=O)[nH]c4=O)C4OC(C)(C)OC34)nn2)n(C)c1=O (configuration not stated) | 0.0156 µg/mL (≈ 0.0243 µM) |
| C#CCCCOC(=O)Cn1cnc2c1c(=O)n(C)c(=O)n2C | 0.0625 µg/mL (≈ 0.205 µM) |
| C#CCOC(=O)Cn1cnc2c1c(=O)n(C)c(=O)n2C | 0.125 µg/mL (≈ 0.452 µM) |

Tested on: not listed separately
Test: Cytotoxicity against human HT-29 cells after 48 hrs by MTT assay
Assay type: functional, cell-based
Details: HT-29, 48 h

| Structure (SMILES) | IC50 |
| --- | --- |
| Cn1c(=O)c2c(ncn2Cc2cn(CC3OC(n4ccc(=O)[nH]c4=O)C4OC(C)(C)OC34)nn2)n(C)c1=O (configuration not stated) | 58.2 µM |
| CCn1c(=O)ccn(C2OC(Cn3cc(COC(=O)CNC(=O)Cn4cnc5c4c(=O)n(C)c(=O)n5C)nn3)C(O)C2O)c1=O (configuration not stated) | 2.9 µM |
| CCn1c(=O)ccn(C2OC(Cn3cc(COC(=O)C(C)NC(=O)C(C)n4cnc5c4c(=O)n(C)c(=O)n5C)nn3)C(O)C2O)c1=O (configuration not stated) | 2.71 µM |
| C#CCCCn1cnc2c1c(=O)n(C)c(=O)n2C | 160 µM |
| CCn1c(=O)ccn(C2OC(Cn3cc(COC(=O)Cn4cnc5c4c(=O)n(C)c(=O)n5C)nn3)C(O)C2O)c1=O (configuration not stated) | 2.19 µM |
| Cn1c(=O)c2c(ncn2CC(=O)NCC(=O)OCc2cn(CC3OC(n4ccc(=O)[nH]c4=O)C4OC(C)(C)OC34)nn2)n(C)c1=O (configuration not stated) | 59.3 µM |
| CCn1c(=O)ccn(C2OC(Cn3cc(COC(=O)CNC(=O)Cn4cnc5c4c(=O)n(C)c(=O)n5C)nn3)C(OC)C2OC)c1=O (configuration not stated) | 74.3 µM |
| Cn1c(=O)c2c(ncn2CC(=O)OCCc2cn(CC3OC(n4ccc(=O)[nH]c4=O)C4OC(C)(C)OC34)nn2)n(C)c1=O (configuration not stated) | 100 µM |
| C#CCCCOC(=O)Cn1cnc2c1c(=O)n(C)c(=O)n2C | 36.6 µM |
| C#CCOC(=O)Cn1cnc2c1c(=O)n(C)c(=O)n2C | 68.3 µM |

Tested on: Pseudomonas aeruginosa
Test: Antimicrobial activity against Pseudomonas aeruginosa ATCC 10145 incubated overnight by two-fold serial dilution method
Assay type: functional
Details: not given

| Structure (SMILES) | MIC |
| --- | --- |
| O=C(O)c1cn(C2CC2)c2cc(N3CCNCC3)c(F)cc2c1=O [CIPROFLOXACIN] | 0.0625 µg/mL (≈ 0.189 µM) |
| Cn1c(=O)c2c(ncn2Cc2cn(CC3OC(n4ccc(=O)[nH]c4=O)C4OC(C)(C)OC34)nn2)n(C)c1=O (configuration not stated) | 0.0312 µg/mL (≈ 0.0592 µM) |
| CCn1c(=O)ccn(C2OC(Cn3cc(COC(=O)CNC(=O)Cn4cnc5c4c(=O)n(C)c(=O)n5C)nn3)C(O)C2O)c1=O (configuration not stated) | 0.0625 µg/mL (≈ 0.0991 µM) |
| CCn1c(=O)ccn(C2OC(Cn3cc(COC(=O)C(C)NC(=O)C(C)n4cnc5c4c(=O)n(C)c(=O)n5C)nn3)C(O)C2O)c1=O (configuration not stated) | 0.0625 µg/mL (≈ 0.0949 µM) |
| C#CCCCn1cnc2c1c(=O)n(C)c(=O)n2C | 0.125 µg/mL (≈ 0.508 µM) |
| CCn1c(=O)ccn(C2OC(Cn3cc(COC(=O)Cn4cnc5c4c(=O)n(C)c(=O)n5C)nn3)C(O)C2O)c1=O (configuration not stated) | 0.0625 µg/mL (≈ 0.109 µM) |
| Cn1c(=O)c2c(ncn2CC(=O)NCC(=O)OCc2cn(CC3OC(n4ccc(=O)[nH]c4=O)C4OC(C)(C)OC34)nn2)n(C)c1=O (configuration not stated) | 0.125 µg/mL (≈ 0.195 µM) |
| C#CCCCOC(=O)Cn1cnc2c1c(=O)n(C)c(=O)n2C | 0.0625 µg/mL (≈ 0.205 µM) |
| C#CCOC(=O)Cn1cnc2c1c(=O)n(C)c(=O)n2C | 0.125 µg/mL (≈ 0.452 µM) |

Tested on: Staphylococcus aureus
Test: Antimicrobial activity against Staphylococcus aureus ATCC 25923 incubated overnight by two-fold serial dilution method
Assay type: functional
Details: not given

| Structure (SMILES) | MIC |
| --- | --- |
| O=C(O)c1cn(C2CC2)c2cc(N3CCNCC3)c(F)cc2c1=O [CIPROFLOXACIN] | 0.0312 µg/mL (≈ 0.0943 µM) |
| Cn1c(=O)c2c(ncn2Cc2cn(CC3OC(n4ccc(=O)[nH]c4=O)C4OC(C)(C)OC34)nn2)n(C)c1=O (configuration not stated) | 0.5 µg/mL (≈ 0.948 µM) |
| CCn1c(=O)ccn(C2OC(Cn3cc(COC(=O)CNC(=O)Cn4cnc5c4c(=O)n(C)c(=O)n5C)nn3)C(O)C2O)c1=O (configuration not stated) | 0.0625 µg/mL (≈ 0.0991 µM) |
| CCn1c(=O)ccn(C2OC(Cn3cc(COC(=O)C(C)NC(=O)C(C)n4cnc5c4c(=O)n(C)c(=O)n5C)nn3)C(O)C2O)c1=O (configuration not stated) | 0.0312 µg/mL (≈ 0.0474 µM) |
| C#CCCCn1cnc2c1c(=O)n(C)c(=O)n2C | 0.0312 µg/mL (≈ 0.127 µM) |
| CCn1c(=O)ccn(C2OC(Cn3cc(COC(=O)Cn4cnc5c4c(=O)n(C)c(=O)n5C)nn3)C(O)C2O)c1=O (configuration not stated) | 0.0625 µg/mL (≈ 0.109 µM) |
| Cn1c(=O)c2c(ncn2CC(=O)NCC(=O)OCc2cn(CC3OC(n4ccc(=O)[nH]c4=O)C4OC(C)(C)OC34)nn2)n(C)c1=O (configuration not stated) | 0.0312 µg/mL (≈ 0.0486 µM) |
| C#CCCCOC(=O)Cn1cnc2c1c(=O)n(C)c(=O)n2C | 0.5 µg/mL (≈ 1.64 µM) |
| C#CCOC(=O)Cn1cnc2c1c(=O)n(C)c(=O)n2C | 0.0312 µg/mL (≈ 0.113 µM) |
